Experimental data from patent US11225505B2, “Antimicrobial polymyxin derivative compounds” (MONASH UNIVERSITY, priority 2015, dated 2022).
Converted amounts (≈) assume the structure as drawn. Where a SMILES comes first, the peptide text is derived from it. Bridges are numbered along the chain shown (N, C = ends). [ ]: non-standard residue; d: D form. The star is where a group is joined. Benzothiazole(2-CH2CH2CO) = O=C(CCc1nc2ccccc2s1)*; Benzothiophen(2-yl)carbonyl = O=C(c1cc2ccccc2s1)*; Benzothiazole(5-carbonyl) = O=C(c1ccc2scnc2c1)*; Benzofuran(2-CO) = O=C(c1cc2ccccc2o1)*; X43 = O=C(c1ccc(-c2ccc(Cl)cc2)cn1)*; X24 = O=C(c1cccc(C(F)(F)F)n1)*; X20 = O=C(c1ccc(C(F)(F)F)s1)*; X58 = Cn1cc(CC(=O)*)c2ccccc21; X1 = O=C(c1ncc(Cl)cc1Cl)*; Dab = NCC[C@H](N)C(=O)O; Abu = CC[C@H](N)C(=O)O; Dap = NC[C@H](N)C(=O)O

Key:
Type in all cases: cell-based
[1] = test system: Acinetobacter baumannii FADDI-AB034; conditions: FADDI-AB034
How it was run: (§1)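 Broth microdilution MIC per CLSI in cation-adjusted Mueller-Hinton broth, lipopeptides tested as TFA salts. Polymyxin B sulphate served as control.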

[2] = test system: Klebsiella pneumoniae FADDI-KP022; conditions: FADDI-KP022
How it was run: as §1

[3] = test system: Enterobacter cloacae FADDI-EC006; conditions: FADDI-EC006
How it was run: as §1

[4] = test system: Pseudomonas aeruginosa FADDI-PA038; conditions: FADDI-PA038
How it was run: as §1

[5] = test system: Enterobacter cloacae FADDI-EC003; conditions: FADDI-EC003
How it was run: as §1

[6] = test system: Pseudomonas aeruginosa ATCC 27853; conditions: ATCC 27853
How it was run: as §1

[7] = test system: Acinetobacter baumannii ATCC 17978; conditions: ATCC 17978
How it was run: as §1

[8] = test system: Klebsiella pneumoniae Kp BM1; conditions: Kp BM1
How it was run: (§2)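 Lipopeptides (TFA salts) tested against Gram-negative strains by CLSI broth microdilution using cation-adjusted Mueller-Hinton broth; MIC recorded, polymyxin B sulphate as control.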

[9] = test system: Klebsiella pneumoniae FADDI-KP032; conditions: FADDI-KP032
How it was run: as §1

[10] = test system: Enterobacter cloacae FADDI-EC001; conditions: FADDI-EC001
How it was run: as §2

[11] = test system: Pseudomonas aeruginosa FADDI-PA01; conditions: FADDI-
How it was run: as §1

[12] = test system: Pseudomonas aeruginosa FADDI-PA022; conditions: FADDI-PA022
How it was run: as §1

[13] = test system: Acinetobacter baumannii FADDI-AB030; assay: microbe, parasite or virus in culture; conditions: FADDI-AB030
How it was run: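 Broth microdilution MIC in cation-adjusted Mueller-Hinton broth per CLSI M100-S24; lipopeptides tested as TFA salts. FADDI-AB030 is a multidrug-resistant clinical isolate. Polymyxin B sulphate served as control.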

Row | SMILES | Minimum inhibitory concentration [1] [µg/mL] | Minimum inhibitory concentration [2] [µg/mL] | Minimum inhibitory concentration [3] [µg/mL] | Minimum inhibitory concentration [4] [µg/mL] | Minimum inhibitory concentration [5] [µg/mL] | Minimum inhibitory concentration [6] [µg/mL] | Minimum inhibitory concentration [7] [µg/mL] | Minimum inhibitory concentration [8] [µg/mL] | Minimum inhibitory concentration [9] [µg/mL] | Minimum inhibitory concentration [10] [µg/mL] | Minimum inhibitory concentration [11] [µg/mL] | Minimum inhibitory concentration [12] [µg/mL] | Minimum inhibitory concentration [13] [µg/mL]
1 | CC[C@@H]1NC(=O)[C@@H](CC(C)C)NC(=O)[C@H](CCN)NC(=O)[C@@H](NC(=O)[C@H](CN)NC(=O)[C@@H](NC(=O)[C@H](CCN)NC(=O)c2cc3ccccc3s2)[C@@H](C)O)CCNC(=O)[C@H]([C@@H](C)O)NC(=O)[C@H](CCN)NC(=O)[C@H](CCN)NC1=O [Compound 50] ({Benzothiophen(2-yl)carbonyl}-[Dab]T[Dap][Dab][Dab][dL][Abu][Dab][Dab]T; lactam 4-C) | <0.125 | <0.125 | 0.5 (≈ 0.436 µM) | 0.25 (≈ 0.218 µM) | 0.5 (≈ 0.436 µM) | 0.5 (≈ 0.436 µM) | <0.125 | 0.5 (≈ 0.436 µM) | 0.25 (≈ 0.218 µM) | 0.25 (≈ 0.218 µM) | <0.125 | 0.25 (≈ 0.218 µM) | 0.5 (≈ 0.436 µM)
2 | CC[C@@H]1NC(=O)[C@@H](CC(C)C)NC(=O)[C@H](CCN)NC(=O)[C@@H](NC(=O)[C@H](CN)NC(=O)[C@@H](NC(=O)[C@H](CCN)NC(=O)c2cc3ccccc3o2)[C@@H](C)O)CCNC(=O)[C@H]([C@@H](C)O)NC(=O)[C@H](CCN)NC(=O)[C@H](CCN)NC1=O [Compound 92] ({Benzofuran(2-CO)}-[Dab]T[Dap][Dab][Dab][dL][Abu][Dab][Dab]T; lactam 4-C) | 0.5 (≈ 0.442 µM) | <0.125 | <0.125 | 0.5 (≈ 0.442 µM) | 0.25 (≈ 0.221 µM) | 0.5 (≈ 0.442 µM) | 1 (≈ 0.884 µM) | 0.5 (≈ 0.442 µM) | 0.5 (≈ 0.442 µM) | <0.125 | 0.5 (≈ 0.442 µM) | 0.5 (≈ 0.442 µM) | 0.5 (≈ 0.442 µM)
3 | CC[C@@H]1NC(=O)[C@@H](CC(C)C)NC(=O)[C@H](CCN)NC(=O)[C@@H](NC(=O)[C@H](CN)NC(=O)[C@@H](NC(=O)[C@H](CCN)NC(=O)c2ccc(C(F)(F)F)s2)[C@@H](C)O)CCNC(=O)[C@H]([C@@H](C)O)NC(=O)[C@H](CCN)NC(=O)[C@H](CCN)NC1=O [Compound 86] (X20-[Dab]T[Dap][Dab][Dab][dL][Abu][Dab][Dab]T; lactam 4-C) | <0.125 | <0.125 | 0.25 (≈ 0.215 µM) | 1 (≈ 0.858 µM) | 0.25 (≈ 0.215 µM) | 0.5 (≈ 0.429 µM) | <0.125 | 0.25 (≈ 0.215 µM) | <0.125 | <0.125 | 0.5 (≈ 0.429 µM) | 0.5 (≈ 0.429 µM) | 0.25 (≈ 0.215 µM)
4 | CC[C@@H]1NC(=O)[C@@H](CC(C)C)NC(=O)[C@H](CCN)NC(=O)[C@@H](NC(=O)[C@H](CN)NC(=O)[C@@H](NC(=O)[C@H](CCN)NC(=O)CCc2nc3ccccc3s2)[C@@H](C)O)CCNC(=O)[C@H]([C@@H](C)O)NC(=O)[C@H](CCN)NC(=O)[C@H](CCN)NC1=O [Compound 72] ({Benzothiazole(2-CH2CH2CO)}-[Dab]T[Dap][Dab][Dab][dL][Abu][Dab][Dab]T; lactam 4-C) | 0.5 (≈ 0.425 µM) | <0.125 | <0.125 | 0.5 (≈ 0.425 µM) | <0.125 | 0.5 (≈ 0.425 µM) | 0.5 (≈ 0.425 µM) | <0.125 | <0.125 | <0.125 | 0.5 (≈ 0.425 µM) | 0.5 (≈ 0.425 µM) | 0.5 (≈ 0.425 µM)
5 | CC(C)C[C@H]1NC(=O)[C@H](CCN)NC(=O)[C@@H](NC(=O)[C@H](CN)NC(=O)[C@@H](NC(=O)[C@H](CCN)NC(=O)c2ccc(-c3ccc(Cl)cc3)cn2)[C@@H](C)O)CCNC(=O)[C@H]([C@@H](C)O)NC(=O)[C@H](CCN)NC(=O)[C@H](CCN)NC(=O)[C@H]([C@@H](C)O)NC1=O [Compound 15] (X43-[Dab]T[Dap][Dab][Dab][dL]T[Dab][Dab]T; lactam 4-C) | 0.5 (≈ 0.41 µM) | <0.125 | 0.25 (≈ 0.205 µM) | 1 (≈ 0.82 µM) | <0.125 | 1 (≈ 0.82 µM) | 0.5 (≈ 0.41 µM) | 0.5 (≈ 0.41 µM) | 0.25 (≈ 0.205 µM) | 0.25 (≈ 0.205 µM) | 2 (≈ 1.64 µM) | 2 (≈ 1.64 µM) | 1 (≈ 0.82 µM)
6 | CC(C)C[C@H]1NC(=O)[C@H](CCN)NC(=O)[C@@H](NC(=O)[C@H](CN)NC(=O)[C@@H](NC(=O)[C@H](CCN)NC(=O)c2ncc(Cl)cc2Cl)[C@@H](C)O)CCNC(=O)[C@H]([C@@H](C)O)NC(=O)[C@H](CCN)NC(=O)[C@H](CCN)NC(=O)[C@H](C)NC1=O [Compound 10] (X1-[Dab]T[Dap][Dab][Dab][dL]A[Dab][Dab]T; lactam 4-C) | 4 (≈ 3.49 µM) | 0.25 (≈ 0.218 µM) | 0.5 (≈ 0.436 µM) | 1 (≈ 0.872 µM) | 0.25 (≈ 0.218 µM) | 0.25 (≈ 0.218 µM) | 4 (≈ 3.49 µM) | 4 (≈ 3.49 µM) | 0.5 (≈ 0.436 µM) | 0.25 (≈ 0.218 µM) | 0.5 (≈ 0.436 µM) | 0.5 (≈ 0.436 µM) | 8 (≈ 6.97 µM)
7 | CC[C@@H]1NC(=O)[C@@H](CC(C)C)NC(=O)[C@H](CCN)NC(=O)[C@@H](NC(=O)[C@H](CN)NC(=O)[C@@H](NC(=O)[C@H](CCN)NC(=O)c2cccc(C(F)(F)F)n2)[C@@H](C)O)CCNC(=O)[C@H]([C@@H](C)O)NC(=O)[C@H](CCN)NC(=O)[C@H](CCN)NC1=O [Compound 44] (X24-[Dab]T[Dap][Dab][Dab][dL][Abu][Dab][Dab]T; lactam 4-C) | 2 (≈ 1.72 µM) | <0.125 | 0.5 (≈ 0.431 µM) | 0.5 (≈ 0.431 µM) | <0.125 | <0.125 | 2 (≈ 1.72 µM) | <0.125 | <0.125 | <0.125 | <0.125 | 0.25 (≈ 0.215 µM) | 1 (≈ 0.862 µM)
8 | CC[C@@H]1NC(=O)[C@@H](CC(C)C)NC(=O)[C@H](CCN)NC(=O)[C@@H](NC(=O)[C@H](CN)NC(=O)[C@@H](NC(=O)[C@H](CCN)NC(=O)Cc2cn(C)c3ccccc23)[C@@H](C)O)CCNC(=O)[C@H]([C@@H](C)O)NC(=O)[C@H](CCN)NC(=O)[C@H](CCN)NC1=O [Compound 62] (X58-[Dab]T[Dap][Dab][Dab][dL][Abu][Dab][Dab]T; lactam 4-C) | 0.5 (≈ 0.432 µM) | <0.125 | 0.5 (≈ 0.432 µM) | 0.5 (≈ 0.432 µM) | 0.25 (≈ 0.216 µM) | 0.5 (≈ 0.432 µM) | 0.5 (≈ 0.432 µM) | 0.25 (≈ 0.216 µM) | <0.125 | <0.125 | 1 (≈ 0.863 µM) | 0.5 (≈ 0.432 µM) | 0.5 (≈ 0.432 µM)
9 | CC[C@@H]1NC(=O)[C@@H](CC(C)C)NC(=O)[C@H](CCN)NC(=O)[C@@H](NC(=O)[C@H](CN)NC(=O)[C@@H](NC(=O)[C@H](CCN)NC(=O)c2ccc3scnc3c2)[C@@H](C)O)CCNC(=O)[C@H]([C@@H](C)O)NC(=O)[C@H](CCN)NC(=O)[C@H](CCN)NC1=O [Compound 53] ({Benzothiazole(5-carbonyl)}-[Dab]T[Dap][Dab][Dab][dL][Abu][Dab][Dab]T; lactam 4-C; N-terminus assumed) | 2 (≈ 1.74 µM) | <0.125 | 2 (≈ 1.74 µM) | 0.5 (≈ 0.435 µM) | 0.25 (≈ 0.218 µM) | 0.5 (≈ 0.435 µM) | 2 (≈ 1.74 µM) | 0.5 (≈ 0.435 µM) | <0.125 | <0.125 | 0.5 (≈ 0.435 µM) | 0.25 (≈ 0.218 µM) | 1 (≈ 0.871 µM)
